# Read-outs that look alike come from different tables or passages of the source.
# Key:
# [1] = test system: IL-31; conditions: NASH patients; cited from earlier work
# [2] = test system: atopic dermatitis-associated pruritus; test: Oral treatment of pruritic atopic dermatitis; type: in vivo, human
# Description: (§1) Subjects are permitted their usual other medications. […] At each visit, the subjects are assessed for their disease symptoms and biomarkers, and assessed for pruritus. The subjects also maintain health diaries, which are reviewed at each visit.
# (§2) Adult subjects with pruritic atopic dermatitis are treated orally with doses of 5, 10, 25, 50, and 100 mg/day of mavodelpar. Subjects are permitted their usual other medications. The subjects are assessed before the study, and at intervals during the study, such as every 4 weeks during the study and 4 weeks after the last dose of the mavodelpar therapy, for safety and pharmacodynamic evaluations. At each visit, the subjects are assessed for their disease symptoms and biomarkers, and assessed for atopic dermatitis-associated pruritus. The subjects also maintain health diaries, which are reviewed at each visit.
# [3] = test system: atopic dermatitis-associated pruritus; test: Topical ointment treatment of pruritic atopic dermatitis; type: in vivo, human
# Description: as §1
# as §2, with “topically” for “orally”, “an ointment containing 1, 2,” for “doses of”, “or 10%” for “10, 25, 50, and 100 mg/day”, “for” for “for atopic dermatitis-associated”
# [4] = biological target: T1, peroxisome proliferator-activated receptor-α (Homo sapiens, UniProt Q07869); conditions: Alzheimer's Drug Discovery Foundation Cognitive Vitality Report, November 2021; read-out: EC50 for PPARα; cited from earlier work
# T1 sequence (Q07869 1-468): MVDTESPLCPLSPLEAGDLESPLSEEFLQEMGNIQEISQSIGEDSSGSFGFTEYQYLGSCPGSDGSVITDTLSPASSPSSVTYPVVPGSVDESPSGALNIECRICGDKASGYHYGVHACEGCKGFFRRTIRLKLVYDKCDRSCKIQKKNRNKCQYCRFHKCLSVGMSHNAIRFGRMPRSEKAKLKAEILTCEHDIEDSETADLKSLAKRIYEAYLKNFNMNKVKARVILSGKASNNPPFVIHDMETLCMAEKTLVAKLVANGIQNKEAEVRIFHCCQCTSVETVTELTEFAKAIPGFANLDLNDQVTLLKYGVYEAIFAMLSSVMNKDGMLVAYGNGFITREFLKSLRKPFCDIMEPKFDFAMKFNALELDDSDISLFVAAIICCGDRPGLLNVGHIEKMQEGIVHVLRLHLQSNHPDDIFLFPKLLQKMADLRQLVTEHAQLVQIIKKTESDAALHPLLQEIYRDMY
# [5] = biological target: T2, peroxisome proliferator-activated receptor-γ (Homo sapiens, UniProt P37231); conditions: Alzheimer's Drug Discovery Foundation Cognitive Vitality Report, November 2021; read-out: EC50 for PPARγ; cited from earlier work
# T2 sequence (P37231 1-505): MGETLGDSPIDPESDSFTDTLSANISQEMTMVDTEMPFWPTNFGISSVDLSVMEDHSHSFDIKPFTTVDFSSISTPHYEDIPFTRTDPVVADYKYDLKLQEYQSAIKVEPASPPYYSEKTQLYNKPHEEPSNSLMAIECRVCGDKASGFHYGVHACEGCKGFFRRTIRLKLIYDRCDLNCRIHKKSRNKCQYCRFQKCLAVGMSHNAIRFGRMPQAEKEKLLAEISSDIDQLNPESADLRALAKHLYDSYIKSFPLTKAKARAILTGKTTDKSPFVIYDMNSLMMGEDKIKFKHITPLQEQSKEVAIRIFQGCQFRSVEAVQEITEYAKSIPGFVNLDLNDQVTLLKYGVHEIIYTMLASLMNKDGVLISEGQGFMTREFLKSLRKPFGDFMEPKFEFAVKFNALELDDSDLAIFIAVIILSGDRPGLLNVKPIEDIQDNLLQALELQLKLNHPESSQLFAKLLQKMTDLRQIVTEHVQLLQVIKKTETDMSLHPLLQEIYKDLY
# [6] = animal models and humans; cited from earlier work
# [7] = several animal models of type 2 diabetes; cited from earlier work
# [8] = early clinical studies; cited from earlier work
# [9] = test system: human IL-31; test: Serum human IL-31 in PXB mice (humanized liver); type: in vivo, PXB mouse; conditions: 2 h after last dose, day 0 0.13 pg/mL
# Text: The PXB mouse (PhoenixBio Co., Ltd., Higashi-Hiroshima, Japan) is a chimeric mouse with a humanized liver, produced by transplanting human hepatocytes into the albumin enhancer/promoter-urokinase-type plasminogen activator complementary DNA transgenic/SCID mouse. The mouse has its liver repopulated by human hepatocytes at a ratio of more than 70%, typically 85-90%, as assessed by measuring the ratio of human albumin to mouse albumin in the blood. The transplanted human hepatocytes express a variety of human messenger RNA (mRNA) and proteins, in a similar manner to those of the normal human liver. […] The study was conducted at PhoenixBio. Male PXB mice aged about 25 weeks, kept in single animal cages and fed CRF1 mouse chow supplemented with AS primate chow for vitamin C supplementation (both from Oriental Yeast Co., Ltd., Tokyo, Japan), were randomized into groups (10/group) based on mean values for body weight and blood human albumin concentration. […] Two hours after the last dose, each mouse was anesthetized with isoflurane, at least 400 μL blood was collected by cardiac puncture, and the mouse sacrificed by exsanguination. The blood samples were left to coagulate at room temperature for at least 5 minutes, then centrifuged at 13200×g for 3 minutes at 4° C. to obtain serum, which was analyzed for human IL-31.
# [10] = PBC patients, 12 months, cited from earlier work
# [11] = test system: human IL-31; conditions: humanized liver murine model; cited from earlier work
# [12] = biological target: T1, peroxisome proliferator-activated receptor-α; test: PPARα agonism / selectivity; type: biochemical
# [13] = test system: CD4 T cells; test: IL-31 production by CD4 T cells under Th2-promoting conditions; type: cell-based, human; conditions: both donors, both promoters; p<0.0001, Mann-Whitney test
# Description: CD4 T cells were enriched from peripheral blood mononuclear cells collected from two normal healthy donors, using the EasySep™ Human CD4+ T Cell Isolation Kit ([…] Technologies). 100,000 CD4 T cells were seeded in a U-bottom 96-well-plate well, and cultured in Th2-promoting conditions promoted by IL-4 or IL-33. […] On day 5 of culture, the anti-CD3/CD28 beads were diluted by adding 150 μL TCM. From days 5 to 13, the cells were cultured in the presence of the same reagents as for days 1 to 4 plus 50 ng/mL IL-2; and the cell culture medium was renewed every 2-3 days by a change of 50% volume of the medium. On day 13 or day 14, the expanded T cells in an individual well were split to four to six wells of 96-well-plate wells; and 5 ng/mL phorbol myristate acetate and 500 ng/mL ionomycin were added for 3 days to re-activate the T cells. The IL-31 concentration in the culture medium of each well was determined using the V-PLEX Human IL-31 Kit (Meso Scale Diagnostics, LLC; Rockville, MD, USA).
# [14] = test system: IL-31; test: Serum IL-31 in PBC subjects, phase 3 study (ENHANCE, NCT03602560); type: in vivo, human; conditions: before treatment
# Text: The trial subjects in this phase 3 study were adult, male or female, with a diagnosis of PBC. Exclusion criteria included AST or ALT≥3×ULN, total bilirubin (TBIL)≥2×ULN, autoimmune hepatitis or a history of chronic viral hepatitis, PSC, the current use of fibrates or simvastatin, the use of colchicine, methotrexate, azathioprine, or systemic steroids in the previous two months, the use of an experimental treatment for PBC, and the use of an experimental or unapproved immunosuppressant. […] Serum IL-31 and its correlation with patient-reported pruritus numerical rating scale (NRS, 0-10) were assessed.
# [15] = Seladelpar oral studies in primary biliary cholangitis; type: in vivo, human
# [16] = Oral bioavailability of seladelpar; conditions: in vivo
smiles,measurement,setting,value
O=C(O)c1ccnc(N2CC(O)(c3ccc(OCc4c(-c5c(Cl)cccc5Cl)noc4C4CC4)cc3Cl)C2)c1 [cilofexor],effect on IL-31,[1],increased IL-31
"Cc1cc(OC/C=C(/c2ccc(F)cc2)c2ccc(C#CCN3CCOCC3)cc2)ccc1OCC(=O)O [mavodelpar, (4-{[(2E)-3-(4-fluorophenyl)-3-{4-[3-(morpholin-4-yl)prop-1-yn-1-yl]phenyl}prop-2-en-1-yl]oxy}-2-methylphenoxy)acetic acid]",atopic dermatitis-associated pruritus,"[2]; oral 5, 10, 25, 50 and 100 mg/day mavodelpar",improvement in their atopic dermatitis-associated pruritus
same,atopic dermatitis-associated pruritus,"[3]; ointment containing 1, 2, 5 or 10% mavodelpar",improvement in their atopic dermatitis-associated pruritus
same,EC50,[4],> 10 µM
same,EC50,[5],> 10 µM
same,high-density lipoprotein cholesterol,[6],significant increase in high-density lipoprotein cholesterol
same,low-density lipoprotein cholesterol and triglycerides,[6],lowering of low-density lipoprotein cholesterol and triglycerides
same,anti-diabetic effect,[7],anti-diabetic effect
same,tolerability,[8],well tolerated
CC[C@H]1[C@@H](O)[C@@H]2[C@H](CC[C@]3(C)[C@@H]([C@H](C)CCC(=O)O)CC[C@@H]23)[C@@]2(C)CC[C@@H](O)C[C@@H]12 [obeticholic acid],serum human IL-31 concentration,[9]; gavage 10 mL/kg of 1 mg/mL once/day for 19 days,3.7 pg/mL
same,patients reporting severe pruritus,[10]; OCALIVA 10 mg arm,23%
same,patients reporting severe pruritus,[10]; OCALIVA titration arm,19%
same,IL-31 mRNA expression in human hepatocytes,[11],increased
"CCO[C@H](COc1ccc(C(F)(F)F)cc1)CSc1ccc(OCC(=O)O)c(C)c1 [seladelpar, [4-({(2R)-2-ethoxy-3-[4-(trifluoromethyl)phenoxy]propyl}sulfanyl)-2-methylphenoxy]acetic acid]",specificity for PPARδ compared with PPARα,[12],> 600 fold
same,IL-31 production vs DMSO control,[13],reduced IL-31 production
same,serum human IL-31 concentration,[9]; gavage 10 mL/kg of 10 mg/mL once/day for 19 days,0.19 pg/mL
same,"mean serum IL-31, baseline",[14]; 5 mg/day oral as L-lysine dihydrate salt,3.8 pg/mL
same,"mean serum IL-31, baseline",[14]; 10 mg/day oral as L-lysine dihydrate salt,4.2 pg/mL
same,atopic dermatitis-associated pruritus,"[2]; oral 5, 10, 25 and 50 mg/day seladelpar",improvement in their atopic dermatitis-associated pruritus
same,atopic dermatitis-associated pruritus,"[3]; ointment containing 1, 2, 5 or 10% seladelpar",improvement in their atopic dermatitis-associated pruritus
same,efficacy in PBC,"[15]; oral 5, 10, 50 and 200 mg/day",effective in the treatment of PBC
same,effect on cholestatic pruritus (exacerbation),"[15]; oral 5, 10, 50 and 200 mg/day in PBC",not to exacerbate cholestatic pruritus
same,efficacy in cholestatic pruritus associated with PBC,[15]; oral 5 and 10 mg/day,effective in the treatment of cholestatic pruritus
same,oral bioavailability,[16],high

# Source: patent US20240252500A1, “Treatment of chronic pruritic dermatoses” (CymaBay Therapeutics, Inc., priority 2023, published 2024)
